Laboratory results from patent US20130131321A1, “LIGANDS FOR ANTIBODY AND Fc-FUSION PROTEIN PURIFICATION BY AFFINITY CHROMATOGRAPHY” (GRAFFINITY PHARMACEUTICALS GMBH, priority 2010, published 2013).
pKd: −log10 of the molar value.

Tests used:
Bevacizumab [1] = molecular target: T1, Bevacizumab (Homo sapiens, UniProt P01857); test: Microtiter plate chromatography of resins, Bevacizumab whole IgG (bound, yield, selectivity); type: binding, humanized
T1 construct: fused on or other part: humanised anti-VEGF-A VH domain N-terminal of the gamma-1 constant region (engineered, no UniProt entry)

Tocilizumab = test: Microtiter plate chromatography of resins, Tocilizumab (bound, yield); type: binding, humanized
Palivizumab = test: Microtiter plate chromatography of resins, Palivizumab (bound, yield); type: binding, humanized
[2] = tested on: human poly-IgG (h-poly-IgG); test: Microtiter plate chromatography of resins, human poly-IgG (bound, yield); type: binding
Bevacizumab Fab fragment = test: Microtiter plate chromatography of resins, Bevacizumab Fab fragment (bound); type: binding, humanized; conditions: for Bevacizumab Fab Bound (%): Bevacizumab Fab fragment
Protocol: (§1) Resins were assessed in packed mode by microtiter plate chromatography. For each column, approximately 30 μl of resin were transferred to a 384-well filter plate and sealed with appropriate top frits.
(§2) Columns were equilibrated with 6.7 column volumes (cv) of phosphate buffered saline (0.15 M NaCl, 20 mM sodium phosphate, pH 7.3; PBS) prior to injection. Either 3.3 cv of whole IgGs dissolved at 0.75 mg ml^−1, Fab or Fc fragments dissolved at 0.25 mg ml^−1 (all three in PBS) or host cell proteins (HCP) were injected onto columns. Antibody fragments of Bevacizumab (Fab and Fc) were prepared by cleavage of whole IgG with papain protease (3) according to the protocol of the manufacturer. […] Volumes transferred were spun through columns at 50 g for 1-2 min. During injection of samples, acceleration was reduced to 10 g and centrifugation time increased to 5-10 min. Effluent fractions were collected in 384-well plates and concentrations of protein analyzed by Bradford assay. Protein masses mi, mft and me (see below) were calculated as the product of fraction volume and measured protein concentration.
(§3) The fraction of ‘bound’ protein was calculated as the difference between the total mass of protein injected mi and the mass of protein detected in the flowthrough mft, divided by the total mass of protein injected.
(§4) the fraction of ‘bound’ protein and the ‘yield’ of protein were calculated for each resin based on data for whole IgG-antibodies. In the case of Bevacizumab fragments and host cell proteins, only the fraction of ‘bound’ protein is given. Selectivity of resins was calculated from data for Bevacizumab Whole IgG and host cell proteins. Due to limited experimental precision, selectivity was truncated beyond values of 10.

Bevacizumab Fc fragment = test: Microtiter plate chromatography of resins, Bevacizumab Fc fragment (bound); type: binding, humanized; conditions: for Bevacizumab Fc Bound (%): Bevacizumab Fc fragment
Protocol: as §1, §2, §3, §4

host cell proteins (HCP) [3] = test: Microtiter plate chromatography of resins, host cell proteins (bound); type: binding, CHO; conditions: host cell proteins
Bevacizumab [4] = molecular target: T1, Bevacizumab; test: Langmuir isotherms by batch adsorption; type: binding, humanized; conditions: Bevacizumab in PBS pH 7.3, 25° C., at least 3 h; for pKd: read-out: Kd (dissociation constant, Langmuir isotherm)
Protocol: Experiments were performed with Bevacizumab as antibody. Parameters of Langmuir isotherms for purified antibody were determined by batch adsorption experiments in 96-well microtiter plates. In each well, 10 μl of sorbent slurry (50% v/v) were mixed with 100 μl of protein solution. Initial concentrations varied from 0.05-5 mg ml^−1 in phosphate-buffered saline (0.15 M NaCl, 20 mM phosphate buffer, pH 7.3; PBS). Reactions were agitated vigorously at 25° C. for at least 3 h. Afterwards, antibody concentration in the supernatents were measured by Bradford assay.
Parameters of Langmuir isotherms, i.e. dissociation constants Kd and maximum capacities qm, were determined from the measured concentrations in supernatants. Parameters were estimated by numerical fitting of the model equation derived by Chase (4).

host cell proteins (HCP) [5] = test: Microtiter plate chromatography of resins, host cell proteins (bound); type: binding, CHO; conditions: estimate predicted on the basis of close analogs L49 and L50
[6] = fraction of whole IgG Bevacizumab bound to resin
[7] = mass of whole IgG Bevacizumab eluted / mass injected
[8] = estimate predicted on the basis of close analogs L49 and L50

| SMILES | Bevacizumab IgG Bound (%) (Bevacizumab [1]; [6]) | Bevacizumab IgG Yield (%) (Bevacizumab [1]; [7]) | Tocilizumab Bound (%) (Tocilizumab) | Tocilizumab Yield (%) (Tocilizumab) | Palivizumab Bound (%) (Palivizumab) | Palivizumab Yield (%) (Palivizumab) | h-poly-IgG Bound (%) [2] | h-poly-IgG Yield (%) [2] | Bevacizumab Fab Bound (%) (Bevacizumab Fab fragment) | Bevacizumab Fc Bound (%) (Bevacizumab Fc fragment) | HCP Bound (%) (host cell proteins (HCP) [3]) | qm (maximum capacity, Langmuir isotherm) (Bevacizumab [4]) | pKd (Bevacizumab [4]) | binding of Bevacizumab Fab-fragment (Bevacizumab Fab fragment; Fab 0.25 mg ml^-1 in PBS) | binding of Bevacizumab Fc-fragment (Bevacizumab Fc fragment; Fc 0.25 mg ml^-1 in PBS) | Bevacizumab IgG Bound (%) (Bevacizumab [1]; [8]) | Bevacizumab IgG Yield (%) (Bevacizumab [1]; [8]) | HCP Bound (%) (host cell proteins (HCP) [5]) |
| --- | --- | --- | --- | --- | --- | --- | --- | --- | --- | --- | --- | --- | --- | --- | --- | --- | --- | --- |
| COc1ccc(NC(=O)c2cncc(-c3ccco3)c2)cc1C(=O)NCCCN [Ligand L13, 5-[3-(2-Furyl)pyridin-5-yl]carboxamido-2-methoxybenzoic acid N-(3-aminopropyl)amide] | 100% | 94% | 91% | 79% | 65% | 58% | 76% | 75% | 9% | 64% | 38% | 37 mg per ml resin | 3.39 | – | – | – | – | – |
| COc1ccc(NC(=O)c2cncc(-c3ccoc3)c2)cc1C(=O)NCCCN [Ligand L22, 5-[3-(3-Furyl)pyridin-5-yl]carboxamido-2-methoxybenzoic acid N-(3-aminopropyl)amide] | 100% | 92% | 62% | 58% | 40% | 34% | 63% | 58% | – | – | 33% | 29 mg per ml resin | 3.43 | – | – | – | – | – |
| COc1ccc(NC(=O)c2cncc(C3CC3)c2)cc1C(=O)NCCCN [Ligand L23, 5-(3-Cyclopropylpyridin-5-yl)carboxamido-2-methoxybenzoic acid N-(3-aminopropyl)amide] | 100% | 98% | 86% | 85% | 61% | 57% | 75% | 74% | 12% | 67% | 32% | 33 mg per ml resin | – | – | – | – | – | – |
| C#Cc1cncc(C(=O)Nc2ccc(OC)c(C(=O)NCCCN)c2)c1 [Ligand L24, 5-(3-Ethynylpyridin-5-yl)carboxamido-2-methoxybenzoic acid N-(3-aminopropyl)amide] | 100% | 97% | 41% | 40% | 24% | 21% | 45% | 47% | – | – | 29% | 33 mg per ml resin | 3.22 | – | – | – | – | – |
| COc1ccc(NC(=O)c2nn(C)c3ccccc23)cc1C(=O)NCCCN [Ligand L27, 2-Methoxy-5-(1-methylindazol-3-yl)carboxamidobenzoic acid N-(3-aminopropyl)amide] | 100% | 94% | 100% | 104% | 100% | 94% | 98% | 89% | 6% | 96% | 35% | 33 mg per ml resin | – | not the Fab-fragment | bound the Fc-fragment | – | – | – |
| COc1ccc(NC(=O)c2cn3ccsc3n2)cc1C(=O)NCCOCC(=O)NCCCC[C@H](NC(=O)COCCNC(=O)c1cc(NC(=O)c2cn3ccsc3n2)ccc1OC)C(=O)NCCCN [Ligand L53, (S)-2,6-Bis{5-[5-(Imidazo[2,1-b]thiazol-6-ylcarboxamido)-2-methoxyphenylcarboxamido]-3-oxapentanoylamido}hexanoic acid (3-amino-1-propyl)amide] | – | – | >90% | >90% | – | – | – | – | – | – | – | – | – | – | – | >95% | >85% | <20% |
